What was measured:
[1] = Solid-state stability of carbamazepine dihydrate (PXRD) at room temperature, 56% relative humidity; format: physicochemical
Description: CBZ dihydrate was prepared by suspending CBZ anhydrate in water for 24 hours.

[2] = cited from earlier work

NC(=O)N1c2ccccc2C=Cc2ccccc21 [carbamazepine dihydrate]
stability of the dihydrate form ([1]; 56% relative humidity at room temperature throughout the whole experiments): stayed stable
stability of the dihydrate form (PXRD) ([1]; 3 days at room temperature 56% relative humidity): stayed stable

NC(=O)N1c2ccccc2C=Cc2ccccc21 [carbamazepine]
pKa [2]: 13.4

— patent US20210129406A1, “DRUG SOLVATES IN THERMAL PROCESSES TO MAKE SOLID DISPERSIONS AT LOWER PROCESSING TEMPERATURES” (BOARD OF REGENTS, THE UNIVERSITY OF TEXAS SYSTEM, priority 2019, published 2021)
